What follows are molecules tested against T1, recombinant His-tag Y220C p53 DBD protein (Homo sapiens, UniProt P04637, Y220C) (assay: In vitro DNA binding activity assay (TR-FRET): binding of His-tag Y220C p53 DBD to biotin-labeled consensus DNA). Settings: SC150 = concentration to increase DNA binding by […], His-tag Y220C p53 DBD, biotin-labeled consensus DNA.
T1 construct: recombinant His-tag Y220C p53 DBD protein (amino acids #˜94-312)
Format: biochemical
With COC1CCCC1n1ccc(C(=O)NCc2nc(-c3cc4c(N[C@@H]5CN(C)CC[C@@H]5F)cccc4n3CC(F)(F)F)no2)c1 (stereo in doubt) [Compound 410B, N-{[3-(4-{[(3R,4S)-4-fluoro-1-methylpiperidin-3-yl]amino}-1-(2,2,2-trifluoroethyl)-1H-indol-2-yl)-1,2,4-oxadiazol-5-yl]methyl}-1-[(1R,2R)-2-methoxycyclopentyl]-1H-pyrrole-3-carboxamide] the “Y220C SC150 (μM)” value was “* (* = 0 μM ≤ SC150 < 0.1 μM)”.
In the case of CN1CC[C@@H](Nc2cccc3c2cc(-c2ncc(CNC(=O)c4ccccc4)s2)n3CC(F)(F)F)[C@@H](F)C1 (racemic) [Compound 91B, (+/−)-N-{[2-(4-{[(3R,4S)-3-fluoro-1-methylpiperidin-4-yl]amino}-1-(2,2,2-trifluoroethyl)-1H-indol-2-yl)-1,3-thiazol-5-yl]methyl}benzamide], the “Y220C SC150 (μM)” value is reported as “* (* = 0 μM ≤ SC150 < 0.1 μM)”.
In the case of CN1CC[C@@H](Nc2cccc3c2cc(-c2noc(CNC(=O)c4cnn(C)c4)n2)n3CC(F)(F)F)[C@@H](F)C1 [Compound 294B, N-{[3-(4-{[(3S,4R)-3-fluoro-1-methylpiperidin-4-yl]amino}-1-(2,2,2-trifluoroethyl)-1H-indol-2-yl)-1,2,4-oxadiazol-5-yl]methyl}-1-methyl-1H-pyrazole-4-carboxamide], the “Y220C SC150 (μM)” value is reported as “* (* = 0 μM ≤ SC150 < 0.1 μM)”.
With COC[C@@H]1CCCN1c1nc(C(=O)NCc2nc(-c3cc4c(N[C@@H]5CCN(C)C[C@@H]5F)cccc4n3CC(F)(F)F)no2)cs1 [Compound 519B, N-{[3-(4-{[(3S,4R)-3-fluoro-1-methylpiperidin-4-yl]amino}-1-(2,2,2-trifluoroethyl)-1H-indol-2-yl)-1,2,4-oxadiazol-5-yl]methyl}-2-[(2S)-2-(methoxymethyl)pyrrolidin-1-yl]-1,3-thiazole-4-carboxamide] the “Y220C SC150 (μM)” value was “* (* = 0 μM ≤ SC150 < 0.1 μM)”.
With CN1CC[C@@H](Nc2cccc3c2cc(-c2noc(CNC(=O)c4ccn(CC(C)(C)O)c4)n2)n3CC(F)(F)F)[C@@H](F)C1 [Compound 252B, N-{[3-(4-{[(3S,4R)-3-fluoro-1-methylpiperidin-4-yl]amino}-1-(2,2,2-trifluoroethyl)-1H-indol-2-yl)-1,2,4-oxadiazol-5-yl]methyl}-1-(2-hydroxy-2-methylpropyl)-1H-pyrrole-3-carboxamide] the “Y220C SC150 (μM)” value was “* (* = 0 μM ≤ SC150 < 0.1 μM)”.
CN1CC[C@@H](Nc2cccc3c2cc(-c2noc(CNC(=O)[C@@H]4C[C@@H]4c4ccccc4)n2)n3CC(F)(F)F)[C@@H](F)C1 [Compound 207B, (1R,2S)-N-{[3-(4-{[(3S,4R)-3-fluoro-1-methylpiperidin-4-yl]amino}-1-(2,2,2-trifluoroethyl)-1H-indol-2-yl)-1,2,4-oxadiazol-5-yl]methyl}-2-phenylcyclopropane-1-carboxamide] was tested, and the “Y220C SC150 (μM)” value was “** (** = 0.1 μM ≤ SC150 < 0.5 μM)”.
For CN1CCC(Nc2cccc3c2cc(-c2nnc(CNC(=O)c4ccc5[nH]ncc5c4)s2)n3CC(F)(F)F)CC1 [Compound 55B, N-[(5-{4-[(1-methylpiperidin-4-yl)amino]-1-(2,2,2-trifluoroethyl)-1H-indol-2-yl}-1,3,4-thiadiazol-2-yl)methyl]-1H-indazole-5-carboxamide], the “Y220C SC150 (μM)” value was “** (** = 0.1 μM ≤ SC150 < 0.5 μM)”.
In the case of CN1CC[C@@H](Nc2cccc3c2cc(-c2noc(CNC(=O)c4ccn(C5CCCC5F)c4)n2)n3CC(F)(F)F)[C@@H](F)C1 (stereo in doubt) [Compound 392B, N-{[3-(4-{[(3S,4R)-3-fluoro-1-methylpiperidin-4-yl]amino}-1-(2,2,2-trifluoroethyl)-1H-indol-2-yl)-1,2,4-oxadiazol-5-yl]methyl}-1-[(1R,2R)-2-fluorocyclopentyl]-1H-pyrrole-3-carboxamide], the “Y220C SC150 (μM)” value is reported as “* (* = 0 μM ≤ SC150 < 0.1 μM)”.
CC(C)n1cncc1C(=O)NCc1nc(-c2cc3c(N[C@@H]4CCN(C)C[C@@H]4F)cccc3n2CC(F)(F)F)no1 [Compound 257B, N-{[3-(4-{[(3S,4R)-3-fluoro-1-methylpiperidin-4-yl]amino}-1-(2,2,2-trifluoroethyl)-1H-indol-2-yl)-1,2,4-oxadiazol-5-yl]methyl}-1-(propan-2-yl)-1H-imidazole-5-carboxamide] was tested, and the “Y220C SC150 (μM)” value was “* (* = 0 μM ≤ SC150 < 0.1 μM)”.
For CN1CC[C@H](Nc2cccc3c2cc(-c2noc(CNC(=O)c4ccn(C)c4)n2)n3CC(F)(F)F)[C@H](F)C1 [Compound 182B, N-{[3-(4-{[(3R,4S)-3-fluoro-1-methylpiperidin-4-yl]amino}-1-(2,2,2-trifluoroethyl)-1H-indol-2-yl)-1,2,4-oxadiazol-5-yl]methyl}-1-methyl-1H-pyrrole-3-carboxamide], the “Y220C SC150 (μM)” value was “* (* = 0 μM ≤ SC150 < 0.1 μM)”.
With C[C@H]1CN(C)CC[C@H]1Nc1cccc2c1cc(-c1noc(CNC(=O)c3cnn(C(C)(C)C)c3)n1)n2CC(F)(F)F [Compound 510B, 1-tert-butyl-N-{[3-(4-{[(3S,4R)-1,3-dimethylpiperidin-4-yl]amino}-1-(2,2,2-trifluoroethyl)-1H-indol-2-yl)-1,2,4-oxadiazol-5-yl]methyl}-1H-pyrazole-4-carboxamide] the “Y220C SC150 (μM)” value was “* (* = 0 μM ≤ SC150 < 0.1 μM)”.
For CN1CC[C@@H](Nc2cccc3c2cc(-c2noc(CNC(=O)c4ccc5c(ccn5C)c4)n2)n3CC(F)(F)F)[C@@H](F)C1 [Compound 259B, N-{[3-(4-{[(3S,4R)-3-fluoro-1-methylpiperidin-4-yl]amino}-1-(2,2,2-trifluoroethyl)-1H-indol-2-yl)-1,2,4-oxadiazol-5-yl]methyl}-1-methyl-1H-indole-5-carboxamide], the “Y220C SC150 (μM)” value was “* (* = 0 μM ≤ SC150 < 0.1 μM)”.
For CCN1CC[C@@H](Nc2cccc3c2cc(-c2noc(CNC(=O)c4cn(C(C)(C)C)cn4)n2)n3CC(F)(F)F)[C@@H](F)C1 [Compound 305B, 1-tert-butyl-N-{[3-(4-{[(3S,4R)-1-ethyl-3-fluoropiperidin-4-yl]amino}-1-(2,2,2-trifluoroethyl)-1H-indol-2-yl)-1,2,4-oxadiazol-5-yl]methyl}-1H-imidazole-4-carboxamide], the “Y220C SC150 (μM)” value was “* (* = 0 μM ≤ SC150 < 0.1 μM)”.
CN1CC[C@@H](Nc2cccc3c2cc(-c2noc(CNC(=O)c4ccc(C(C)(C)C)s4)n2)n3CC(F)(F)F)[C@@H](F)C1 [Compound 422B, 5-tert-butyl-N-[[3-[4-[[(3S,4R)-3-fluoro-1-methyl-4-piperidyl]amino]-1-(2,2,2-trifluoroethyl)indol-2-yl]-1,2,4-oxadiazol-5-yl]methyl]thiophene-2-carboxamide] was tested, and the “Y220C SC150 (μM)” value was “* (* = 0 μM ≤ SC150 < 0.1 μM)”.
For CN1CCC(Nc2cccc3c2cc(-c2nnc(CNC(=O)c4ccc(F)cc4)s2)n3CC(F)(F)F)CC1 [Compound 52B, 4-fluoro-N-[(5-{4-[(1-methylpiperidin-4-yl)amino]-1-(2,2,2-trifluoroethyl)-1H-indol-2-yl}-1,3,4-thiadiazol-2-yl)methyl]benzamide], the “Y220C SC150 (μM)” value was “* (* = 0 μM ≤ SC150 < 0.1 μM)”.
For CN1CC[C@@H](Nc2cccc3c2cc(-c2noc(CNC(=O)c4ccc(C5(CO)CC5)s4)n2)n3CC(F)(F)F)[C@@H](F)C1 [Compound 486B, N-{[3-(4-{[(3S,4R)-3-fluoro-1-methylpiperidin-4-yl]amino}-1-(2,2,2-trifluoroethyl)-1H-indol-2-yl)-1,2,4-oxadiazol-5-yl]methyl}-5-[1-(hydroxymethyl)cyclopropyl]thiophene-2-carboxamide], the “Y220C SC150 (μM)” value was “* (* = 0 μM ≤ SC150 < 0.1 μM)”.
